PubChem BioAssay (NCI)
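Grown in 96-well plates, cells were treated for 48 hours with each compound at five concentrations. Insufficient inhibition: endpoint recorded as highest concentration tested. GI50 marks 50% less growth. TGI denotes the concentration required for complete inhibition of growth.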

Tests used:
Test in all cases: NCI tumour cell line growth inhibition, 48 h
UACC-257 melanoma = tested on: UACC-257 melanoma
SK-MEL-2 melanoma = tested on: SK-MEL-2 melanoma
PC-3 prostate = tested on: PC-3 prostate
BT-549 breast = tested on: BT-549 breast
OVCAR-4 ovarian = tested on: OVCAR-4 ovarian
A498 renal = tested on: A498 renal
TK-10 renal = tested on: TK-10 renal
CCRF-CEM leukemia = tested on: CCRF-CEM leukemia
SW-620 colon = tested on: SW-620 colon
HOP-92 NSCLC = tested on: HOP-92 NSCLC

| SMILES | TGI (UACC-257 melanoma) [µM] | TGI (SK-MEL-2 melanoma) [µM] | TGI (PC-3 prostate) [µM] | TGI (BT-549 breast) [µM] | TGI (OVCAR-4 ovarian) [µM] | TGI (A498 renal) [µM] | TGI (TK-10 renal) [µM] | TGI (CCRF-CEM leukemia) [µM] | TGI (SW-620 colon) [µM] | TGI (HOP-92 NSCLC) [µM] | GI50 (UACC-257 melanoma) [µM] | GI50 (SK-MEL-2 melanoma) [µM] | GI50 (SW-620 colon) [µM] | GI50 (OVCAR-4 ovarian) [µM] | GI50 (A498 renal) [µM] | GI50 (TK-10 renal) [µM] | GI50 (PC-3 prostate) [µM] | GI50 (BT-549 breast) [µM] | GI50 (HOP-92 NSCLC) [µM] | GI50 (CCRF-CEM leukemia) [µM] |
| --- | --- | --- | --- | --- | --- | --- | --- | --- | --- | --- | --- | --- | --- | --- | --- | --- | --- | --- | --- | --- |
| c1ccc(-c2cc(-c3cc(-c4ccccc4)n[nH]3)[nH]n2)cc1 | > 100 | > 100 | > 100 | > 100 | > 100 | > 100 | > 100 | > 100 |  |  |  |  |  |  |  |  |  |  |  |  |
| COC(=O)[C@H]1ON2O[C@@H](O[C@H]3CCCC[C@@H]3C(C)(C)c3ccccc3)C[C@@H]3CC[C@H]1[C@@]32C | > 100 |  |  |  |  | > 100 | > 100 | > 100 | > 100 | > 100 |  |  |  |  |  |  |  |  |  |  |
| C[C@@H]1CCN(C(=O)CC#N)C[C@@H]1N(C)c1ncnc2[nH]ccc12 | > 100 | > 100 |  |  | > 100 | > 100 | > 100 |  | > 100 |  | > 100 | > 100 | > 100 | > 100 | 23.3 | 38.1 |  |  |  |  |
| CC1CSc2nc3[nH]c(=S)[nH]c3c(=O)n2C1 (centres undefined) | > 100 |  |  | > 100 | > 100 | > 100 | > 100 | > 100 | > 100 |  |  |  |  |  |  |  |  |  |  |  |
| N#Cc1nc(Cc2ccccc2)oc1N | > 100 | > 100 | > 100 | > 100 | > 100 |  | > 100 | > 100 | > 100 |  |  |  |  |  |  |  |  |  |  |  |
| CCOC(=O)c1ccc(Nc2nc3ccc(C(F)(F)F)cc3nc2-c2ccccc2)cc1 | > 100 |  | > 100 |  |  |  | > 100 | > 100 | > 100 |  |  |  |  |  |  |  |  |  |  |  |
| Cc1cc2nc3c(C(O)CO)nn(-c4ccccc4)c3nc2cc1C (centres undefined) | 48.1 | 56.2 | 32.7 | 42.8 | 53.4 | 34.9 | 35.4 |  | 55.4 | 45.4 |  |  |  |  |  |  |  |  |  |  |
| CCOC(=O)/C=C/[C@H](O[Si](c1ccccc1)(c1ccccc1)c1ccccc1)C(C)(C)C | > 31.6 | > 31.6 | > 31.6 |  | > 31.6 | > 31.6 | > 31.6 | > 31.6 | > 31.6 | > 31.6 |  |  |  |  |  |  |  |  |  |  |
| O/N=C1\CC2(N3CCOCC3)CCC1(Cc1ccccc1)CC2 | > 100 | 85 | > 100 |  | 84.8 | 88.9 |  | > 100 | > 100 | 89.2 |  |  |  |  |  |  |  |  |  |  |
| O=C(c1ccc(Cl)cc1)N(C(=S)N1CCN(c2ccccc2)CC1)c1ccccc1 | > 100 | > 100 |  |  | > 100 |  | > 100 | > 100 | > 100 | > 100 |  |  |  |  |  |  |  |  |  |  |
| C=CCC1(O)c2cccc(O)c2C(=O)c2cccc(O)c21 (centres undefined) | 38.7 | 31.1 | 47.3 | 47.4 | > 100 | 37 | 73.5 |  | > 100 | 42.3 |  |  |  |  |  |  |  |  |  |  |
| CCCN(CCC)C(=O)Cc1c2n(c3ccccc13)Cc1ccccc1-2 | > 100 | > 100 |  |  | > 100 |  | > 100 | > 100 | > 100 | 57.7 |  |  |  |  |  |  |  |  |  |  |
| CCOC(=O)c1c(NC(=O)c2ccccc2)sc2c1CCC2 | > 100 | > 100 | > 100 | > 100 |  | > 100 | > 100 | > 100 |  |  |  |  |  |  |  |  |  |  |  |  |
| C/C(=C1/N=C(c2cc([N+](=O)[O-])ccc2Cl)N(C2=CC=C(Cl)CC2)C1=O)c1cc2ccccc2oc1=O | > 100 |  |  |  | > 100 | > 100 |  | > 100 | > 100 |  |  |  |  |  |  |  |  |  |  |  |
| COC(=O)c1cc(C)ccc1CC(Cc1ccccc1C)C(=O)OC (centres undefined) | 91.9 |  | > 100 | > 100 | > 100 | > 100 | > 100 | 44.3 | > 100 | 79.7 |  |  |  |  |  |  |  |  |  |  |
| CC1(C)OC2CN(C(=O)OCc3ccccc3)C(CO)C2O1 (centres undefined) | > 100 | > 100 | > 100 | > 100 | > 100 | > 100 | > 100 |  | > 100 | > 100 |  |  |  |  |  |  |  |  |  |  |
| CO/N=C1/C(n2[nH]c(=O)n(-c3ccccc3)c2=O)C2C=CC1n1c(=O)n(-c3ccccc3)c(=O)n12 (centres undefined) | > 100 | > 100 | > 100 | > 100 | > 100 | > 100 | > 100 | > 100 | > 100 |  |  |  |  |  |  |  |  |  |  |  |
| COc1ccc(/C=N/n2c(C)n[nH]c2=O)cc1 | > 100 | > 100 | > 100 | > 100 | > 100 | > 100 |  | > 100 | > 100 |  |  |  |  |  |  |  |  |  |  |  |

| SMILES | TGI (UACC-257 melanoma) [µM] | TGI (SK-MEL-2 melanoma) [µM] | TGI (PC-3 prostate) [µM] | TGI (BT-549 breast) [µM] | TGI (OVCAR-4 ovarian) [µM] | TGI (A498 renal) [µM] | TGI (TK-10 renal) [µM] | TGI (CCRF-CEM leukemia) [µM] | TGI (SW-620 colon) [µM] | TGI (HOP-92 NSCLC) [µM] | GI50 (UACC-257 melanoma) [µM] | GI50 (SK-MEL-2 melanoma) [µM] | GI50 (SW-620 colon) [µM] | GI50 (OVCAR-4 ovarian) [µM] | GI50 (A498 renal) [µM] | GI50 (TK-10 renal) [µM] | GI50 (PC-3 prostate) [µM] | GI50 (BT-549 breast) [µM] | GI50 (HOP-92 NSCLC) [µM] | GI50 (CCRF-CEM leukemia) [µM] |
| --- | --- | --- | --- | --- | --- | --- | --- | --- | --- | --- | --- | --- | --- | --- | --- | --- | --- | --- | --- | --- |
| CN(C)CCCNC(=O)CNC(=O)c1cc(NC(=O)c2cc(NC(=O)c3cc(NC(=O)CCNC(=O)c4cc(NC(=O)c5cc(NC(=O)c6nccn6C)cn5C)cn4C)cn3C)cn2C)cn1C | > 100 | > 100 | > 100 |  | > 100 | > 100 | > 100 | 49.2 | > 100 | > 100 |  |  |  |  |  |  |  |  |  |  |
| O=C(CN=C(CN(c1ccccc1)c1ccccc1)Oc1c([N+](=O)[O-])cc([N+](=O)[O-])cc1[N+](=O)[O-])N1CCNCC1 | > 100 |  | > 100 | > 100 | > 100 |  | > 100 | > 100 | > 100 | > 100 |  |  |  |  |  |  |  |  |  |  |
| CCOC(=O)CC[C@@H](NC(=O)c1ccc(NCc2ccc3nc(OC)c(OC)nc3c2)cc1)C(=O)OCC | 31.4 | 40.6 | > 100 | > 100 | > 100 |  | > 100 | > 100 | > 100 | 36.2 |  |  |  |  |  |  |  |  |  |  |
| CCCC(=O)N[C@@H](Cc1cc(I)c(O)c(I)c1)C(=O)NCCCNCCCCNCCCNC(=O)[C@@H](N)CCCN=C(N)N | > 100 |  |  |  |  |  | > 100 | > 100 | > 100 |  |  |  |  |  |  |  |  |  |  |  |
| FC(F)(F)C1(C(F)(F)F)OC(Cl)(Cl)C(Cl)(Cl)O1 | > 10 | > 10 | > 10 | > 10 | > 10 | > 10 | > 10 |  | > 10 | > 10 |  |  |  |  |  |  |  |  |  |  |
| Nc1ccccc1Sc1ccc(Cl)cc1 | 54.1 | 87.8 |  |  | > 100 | > 100 | > 100 | 46.6 | > 100 | 41.1 |  |  |  |  |  |  |  |  |  |  |
| Cc1ccc(S(=O)(=O)OCC23CCC(C4CC42)C2CC23)cc1 (centres undefined) | 89.1 |  |  |  | > 100 | > 100 | > 100 | > 100 | > 100 | > 100 |  |  |  |  |  |  |  |  |  |  |
| COc1cc(/C=C/C(=O)O)ccc1O | > 100 | > 100 | > 100 |  | > 100 |  | > 100 | > 100 | > 100 | > 100 |  |  |  |  |  |  |  |  |  |  |
| CC1=NN(C(=O)CC(=O)Nc2cccc(Cl)c2)C(=O)C1N=Nc1ccc(S(=O)(=O)c2ccc(N=NC3C(=O)N(C(=O)CC(=O)Nc4cccc(Cl)c4)N=C3C)cc2)cc1 (centres undefined) | > 100 | > 100 | > 100 | > 100 | > 100 |  | > 100 | > 100 | > 100 | > 100 |  |  |  |  |  |  |  |  |  |  |
| CCOP(=O)(OCC)C(Cc1ccccc1)N=C(c1ccccc1)c1ccccc1 (centres undefined) | 27.1 | 38.2 | 16.8 | 27 | 38.3 |  | 23.6 | 37.1 | 25.2 | 27.5 |  |  |  |  |  |  |  |  |  |  |
| CCC(/C=C/c1ccccc1)=N\NC(=S)N/N=C(/C=C/c1ccccc1)CC | > 100 |  | > 100 | > 100 | > 100 | 59.8 | > 100 | > 100 | > 100 | > 100 |  |  |  |  |  |  |  |  |  |  |
| CC(C)(C)OC(=O)/C=C/C(=O)O/C=C/[N+](=O)[O-] | > 100 |  |  |  |  | > 100 | > 100 | > 100 | > 100 | > 100 |  |  |  |  |  |  |  |  |  |  |
| CC1OC(OC2C(Oc3cc(O)c4c(=O)cc(-c5ccc(O)cc5)oc4c3)OC(CO)C(O)C2O)C(O)C(O)C1O (centres undefined) | > 100 | > 100 |  |  | > 100 | > 100 | > 100 | > 100 |  | > 100 |  |  |  |  |  |  |  |  |  |  |
| CC(=O)/C=C/c1c[nH]c(=O)[nH]c1=O | 641 | 444 |  |  | 883 | 566 |  | 649 | 696 | 102 |  |  |  |  |  |  |  |  |  |  |
| COc1cc2cnc3c(c2cc1OC)Cc1cc2c(cc1-3)OCO2 |  |  |  | 50.2 | > 62.8 | 17.8 | 2.83 | 0.0344 | > 100 | > 100 |  |  | < 0.01 | 13.6 | < 0.0183 | < 0.01 | < 0.01 | 0.391 | > 93.6 | < 0.01 |
| COc1ccc(S(=O)Cc2cc(OC)ccc2OC)cc1 (centres undefined) | > 100 |  | > 100 | > 100 | > 100 | > 100 | > 100 | > 100 | > 100 | > 100 |  |  |  |  |  |  |  |  |  |  |
| Cc1cc2c(cc1Cl)Sc1nnc(C)n1S2(=O)=O | 30.5 |  | 37 | 29.7 | 27.2 | 40.2 | 56.9 | 34.1 | 35 | 24.1 |  |  |  |  |  |  |  |  |  |  |
